Among the data in patent US5536645A, “Nutritive medium for the culture of microorganism” (priority 1993, dated 1996) are growth values, retold here.

What all share (format): cell-based
For one assay, the system named is Pseudomonas aeruginosa. As to the kind of experiment: Effect of L-malic acid on growth (FIG. 11). Particulars: 500 mg/l in FIG. 11. As for the experimental part: FIGS. 11 illustrates the effect of L-malic acid on the growth of Pseudomonas aeruginosa, curve a corresponding to the growth obtained with an IST medium devoid of L-malic acid and curve b after addition of a concentration of 500 mg/l of L-malic acid.
(§1) The carbon sources of the medium of the invention are mainly represented by a sugar, preferably D-glucose, and an organic acid, in particular L-malic acid. D-glucose has been retained, taking account of its utilization by a large number of bacterial species with fermentative or non-fermentative metabolism (Stanier R. Y. et al. (1966) The aerobic Pseudomonas: a taxonomic study. J. Gen. Microbiol. 43: 159-271). Its concentration in the medium of the invention was determined to obtain a biomass close to that obtained with the reference Mueller-Hinton medium. […] The respective concentrations of D-glucose and L-malic acid were determined to correspond to the qualities of Mueller-Hinton.

For assay [1], the system named is non-saccharolytic species, such as Alcaligenes faecalis and Pseudomonas acidovorans. As to the kind of experiment: Effect of L-malic acid on growth (FIG. 10). Particulars: 500 mg/l in FIG. 10. As for the experimental part:
as §1

Assay [2] deals with Enterococcus hirae and Enterococcus faecium. The assay is described as follows: Effect of tetrapeptide on growth (FIG. 14). Particulars: 50 or 100 mg/l of peptide in FIG. 14. As for the experimental part:
Curve a corresponds to the results obtained with the medium of the invention without addition of the abovementioned peptide, nor addition of constituent free amino acids of this peptide. Curve b illustrates the results obtained with the addition of amino acids Ala, Gly, Ser, GLu respectively at concentrations of 11, 9, 12.5 and 17.5 mg/l. […] Curve d corresponds to the bacterial growth obtained after addition to the medium of 50 mg/l of the peptide. Curve e illustrates the results obtained after addition of 100 mg/l of the same peptide.
Among the peptides tested, only those showing size a less than or equal to 15 amino acids cause a strong increase in the growth.

In the next assay the test system is staphylococci. The assay is described as follows: Effect of ethyl oxaloacetate on growth (FIG. 8). Particulars: 5 mg/l in FIG. 8. The text has this: Ethyl oxaloacetate is described for its stimulatory effect on the growth of numerous species (Pelczar M. J. and Brown J. H. (1951) Synthetic culture media for reference use in dairy bacteriology, J. Milk Food Technol., 14: 90-91 and 97).

For `O=C(O)C[C@H](O)C(=O)O` [L-malic acid], the figures for the growth result (in the assay with Pseudomonas aeruginosa; in assay [1]) were “increases the growth of Pseudomonas aeruginosa” and “necessary for the growth of the non-saccharolytic species”, respectively.

With “Ala-Gly-Ser-Glu (AGSE) [Ala-Gly-Ser-Glu (SEQ ID NO: 1)]”, the growth entry in assay [2] is reported as “considerable increase in the growth”.

For the molecule ethyl oxaloacetate, the growth entry in the assay with staphylococci was “allowing the growth of the staphylococci to be increased without inhibiting that of the other species”.
